“And” between values parts separate entries of the source, which are not always exact repeats. Equal values may be shown once. Inconclusive results and toxic doses are left out.
System: CD2F1 mice, L1210 leukemia ip, survival T/C
Experiment: NCI In Vivo Anticancer Drug Screen. Data for tumor model L1210 Leukemia (intraperitoneal) in CD2F1 (CDF1) mice
Settings: higher = longer survival
Method in brief: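 Read-out first: treated-group measurement over vehicle-control measurement, expressed as a ratio. Animals bore a transplanted tumor line and were dosed with compound or vehicle.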

With `O=C(O)C(F)(F)F` the T/C (endpoint: mean survival time, dose: 100.0 mg/kg/injection, schedule: Q01DX009 (ip), vehicle: saline with Tween-80) was 100 % of control, the T/C (endpoint: mean survival time, dose: 100.0 mg/kg/injection, schedule: Q04DX003 (ip), vehicle: saline) was 102 % of control and the T/C (endpoint: mean survival time, dose: 200.0 mg/kg/injection, schedule: Q01DX009 (ip), vehicle: saline with Tween-80) was 103 % of control. For the same molecule, the T/C (endpoint: mean survival time, dose: 200.0 mg/kg/injection, schedule: Q04DX003 (ip), vehicle: saline) was 96 % of control, the T/C (endpoint: mean survival time, dose: 400.0 mg/kg/injection, schedule: Q01DX009 (ip), vehicle: saline with Tween-80) was 100 % of control and the T/C (endpoint: mean survival time, dose: 400.0 mg/kg/injection, schedule: Q04DX003 (ip), vehicle: saline) was 102 % of control.
With `CN1CCN(CN2C(=O)C3C4C=CC(C3C2=O)C2C3C(=O)N(CN5CCN(C)CC5)C(=O)C3C42)CC1` (configuration not stated) the T/C (endpoint: median survival time, dose: 7.2 mg/kg/injection, schedule: Q03HX027 (ip), vehicle: water) was 106 % of control, the T/C (endpoint: median survival time, dose: 8.3 mg/kg/injection, schedule: Q03HX027 (ip), vehicle: water) was 104 % of control and the T/C (endpoint: median survival time, dose: 12.0 mg/kg/injection, schedule: Q03HX027 (ip), vehicle: water) was 114 % of control. The T/C (endpoint: median survival time, dose: 16.1 mg/kg/injection, schedule: Q01DX009 (ip), vehicle: water) was 108 % of control, the T/C (endpoint: median survival time, dose: 24.8 mg/kg/injection, schedule: Q01DX009 (ip), vehicle: water) was 102 % of control and 105 % of control and 109 % of control and the T/C (endpoint: median survival time, dose: 26.8 mg/kg/injection, schedule: Q01DX009 (ip), vehicle: water) was 105 % of control. For the same molecule, the T/C (endpoint: median survival time, dose: 33.4 mg/kg/injection, schedule: Q03HX027 (ip), vehicle: water) was 172 % of control, the T/C (endpoint: median survival time, dose: 38.4 mg/kg/injection, schedule: Q03HX027 (ip), vehicle: water) was 114 % of control and the T/C (endpoint: median survival time, dose: 41.3 mg/kg/injection, schedule: Q01DX009 (ip), vehicle: water) was 124 % of control. For the same molecule, the T/C (endpoint: median survival time, dose: 44.6 mg/kg/injection, schedule: Q01DX009 (ip), vehicle: water) was 152 % of control, the T/C (endpoint: median survival time, dose: 55.7 mg/kg/injection, schedule: Q03HX027 (ip), vehicle: water) was 103 % of control and the T/C (endpoint: median survival time, dose: 68.8 mg/kg/injection, schedule: Q01DX009 (ip), vehicle: water) was 178 % of control and 183 % of control and 219 % of control. The T/C (endpoint: median survival time, dose: 74.4 mg/kg/injection, schedule: Q01DX009 (ip), vehicle: water) was 255 % of control and the T/C (endpoint: median survival time, dose: 114.7 mg/kg/injection, schedule: Q01DX009 (ip), vehicle: water) was 210 % of control and 243 % of control and 103 % of control.
For `O=P(O)(CCCCl)c1ccccc1`, the T/C (endpoint: mean survival time, dose: 25.0 mg/kg/injection, schedule: Q04DX002 (ip), vehicle: saline with Tween-80) was 95 % of control, the T/C (endpoint: mean survival time, dose: 50.0 mg/kg/injection, schedule: Q04DX002 (ip), vehicle: saline with Tween-80) was 91 % of control and the T/C (endpoint: mean survival time, dose: 100.0 mg/kg/injection, schedule: Q04DX002 (ip), vehicle: saline with Tween-80) was 98 % of control. For the same molecule, the T/C (endpoint: mean survival time, dose: 200.0 mg/kg/injection, schedule: Q04DX002 (ip), vehicle: saline with Tween-80) was 91 % of control.
In the case of `CC1C(c2ccccc2)OP(=O)(N(CCCl)CCCl)N1C` (configuration not stated), the T/C (endpoint: mean survival time, dose: 1.56 mg/kg/injection, schedule: Q01DX009 (ip), vehicle: other) is reported as 110 % of control, the T/C (endpoint: mean survival time, dose: 3.13 mg/kg/injection, schedule: Q01DX009 (ip), vehicle: other) is reported as 101 % of control and the T/C (endpoint: mean survival time, dose: 6.25 mg/kg/injection, schedule: Q01DX009 (ip), vehicle: other) is reported as 98 % of control. For the same molecule, the T/C (endpoint: mean survival time, dose: 12.5 mg/kg/injection, schedule: Q01DX009 (ip), vehicle: other) was 103 % of control and 95 % of control and 97 % of control, the T/C (endpoint: mean survival time, dose: 12.5 mg/kg/injection, schedule: Q01DX009 (ip), vehicle: water) was 92 % of control and the T/C (endpoint: mean survival time, dose: 25.0 mg/kg/injection, schedule: Q01DX001 (ip), vehicle: other) was 97 % of control and 100 % of control. For the same molecule, the T/C (endpoint: mean survival time, dose: 25.0 mg/kg/injection, schedule: Q01DX009 (ip), vehicle: other) was 104 % of control and 95 % of control, the T/C (endpoint: mean survival time, dose: 25.0 mg/kg/injection, schedule: Q01DX009 (ip), vehicle: water) was 86 % of control and the T/C (endpoint: mean survival time, dose: 31.3 mg/kg/injection, schedule: Q01DX001 (ip), vehicle: other) was 104 % of control [middle of 4 runs]. The T/C (endpoint: mean survival time, dose: 50.0 mg/kg/injection, schedule: Q01DX001 (ip), vehicle: other) was 102 % of control and 92 % of control, the T/C (endpoint: mean survival time, dose: 50.0 mg/kg/injection, schedule: Q01DX009 (ip), vehicle: other) was 95 % of control and 100 % of control and the T/C (endpoint: mean survival time, dose: 50.0 mg/kg/injection, schedule: Q01DX009 (ip), vehicle: water) was 100 % of control. For the same molecule, the T/C (endpoint: mean survival time, dose: 62.5 mg/kg/injection, schedule: Q01DX001 (ip), vehicle: other) was 104 % of control and 103 % of control and 101 % of control, the T/C (endpoint: mean survival time, dose: 100.0 mg/kg/injection, schedule: Q01DX001 (ip), vehicle: other) was 103 % of control and 97 % of control and the T/C (endpoint: mean survival time, dose: 100.0 mg/kg/injection, schedule: Q01DX009 (ip), vehicle: other) was 97 % of control and 100 % of control. The T/C (endpoint: mean survival time, dose: 100.0 mg/kg/injection, schedule: Q01DX009 (ip), vehicle: water) was 88 % of control, the T/C (endpoint: mean survival time, dose: 125.0 mg/kg/injection, schedule: Q01DX001 (ip), vehicle: other) was 95 % of control and 101 % of control and 104 % of control and the T/C (endpoint: mean survival time, dose: 200.0 mg/kg/injection, schedule: Q01DX001 (ip), vehicle: other) was 103 % of control and 108 % of control. The T/C (endpoint: mean survival time, dose: 200.0 mg/kg/injection, schedule: Q01DX009 (ip), vehicle: other) was 95 % of control and 101 % of control, the T/C (endpoint: mean survival time, dose: 250.0 mg/kg/injection, schedule: Q01DX001 (ip), vehicle: other) was 103 % of control and 98 % of control and 97 % of control and the T/C (endpoint: mean survival time, dose: 500.0 mg/kg/injection, schedule: Q01DX001 (ip), vehicle: other) was 107 % of control and 103 % of control and 104 % of control.
With `CNC(=O)Oc1cccn(C(=O)NC)c1=O` the T/C (endpoint: mean survival time, dose: 12.5 mg/kg/injection, schedule: Q01DX009 (ip), vehicle: saline) was 98 % of control and 101 % of control, the T/C (endpoint: mean survival time, dose: 25.0 mg/kg/injection, schedule: Q01DX009 (ip), vehicle: saline) was 103 % of control and 107 % of control and the T/C (endpoint: mean survival time, dose: 50.0 mg/kg/injection, schedule: Q01DX009 (ip), vehicle: saline) was 107 % of control and 109 % of control. For the same molecule, the T/C (endpoint: mean survival time, dose: 75.0 mg/kg/injection, schedule: Q01DX009 (ip), vehicle: Klucel (hydroxypropylcellulose) (HPC)) was 112 % of control, the T/C (endpoint: mean survival time, dose: 75.0 mg/kg/injection, schedule: Q01DX009 (ip), vehicle: saline) was 104 % of control and 109 % of control and 112 % of control and the T/C (endpoint: mean survival time, dose: 100.0 mg/kg/injection, schedule: Q01DX009 (ip), vehicle: saline) was 115 % of control. For the same molecule, the T/C (endpoint: mean survival time, dose: 150.0 mg/kg/injection, schedule: Q01DX009 (ip), vehicle: saline) was 113 % of control and 110 % of control.

Reference: PubChem BioAssay AID256 (DTP/NCI, 2004)
